Test results reported in the supplement of paper PMC10307832.

Experiments:
Assay in all cases: relative viability (nuclei count vs DMSO), 5 days (fraction); higher = more cells survive
A-427 = test system: A-427
In short: (§1)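 Lung cancer cell lines in 1536-well plates were dosed by pin tool the day after seeding, either with one drug alone or with a fixed anchor-drug dose plus five library-drug doses (not always all listed) in √10 steps. After 5 days, cells were fixed and their nuclei stained in one step (final 0.05% Triton X-100, 1% formaldehyde, 1 ug/ml Hoechst), then counted on 4× images. Relative viability is the nuclei count in treated wells divided by that in vehicle wells. Values are medians of duplicate plates.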

LK-2 = test system: LK-2
In short: as §1

SW 900 = test system: SW 900
In short: as §1

NCI-H520 = test system: NCI-H520
In short: as §1

HCC-44 = test system: HCC-44
In short: as §1

NCI-H522 = test system: NCI-H522
In short: as §1

NCI-H23 = test system: NCI-H23
In short: as §1

SK-MES-1 = test system: SK-MES-1
In short: as §1

LCLC-103H = test system: LCLC-103H
In short: as §1

COR-L 105 = test system: COR-L 105
In short: as §1

HARA = test system: HARA
In short: as §1

NCI-H1666 = test system: NCI-H1666
In short: as §1

Question: For `COc1cc(N2CCC(C(N)=O)CC2)ccc1Nc1nc(N)c(Cl)c(Nc2ccccc2S(=O)(=O)C(C)C)n1` [HG-5-88-01] + O=C(c1cc(Cc2n[nH]c(=O)c3ccccc23)ccc1F)N1CCN(C(=O)C2CC2)CC1 [Olaparib] (partner 8 µM), which relative viability (A-427; first compound 0.04 µM) is on record?
Answer: Its relative viability is 0.652.

Question: And the relative viability (A-427; first compound 0.1265 µM)?
Answer: Its relative viability is 0.807.

Question: What about the relative viability (A-427; first compound 0.4 µM) of the same compound?
Answer: The relative viability was 0.762.

Question: What about the relative viability (A-427; first compound 1.265 µM) of the same compound?
Answer: The relative viability was 0.746.

Question: What about the relative viability (A-427; first compound 4 µM) of the same compound?
Answer: The relative viability was 0.513.

Question: What about the relative viability (LK-2; first compound 0.04 µM) of the same compound?
Answer: Its relative viability is 0.941.

Question: And the relative viability (LK-2; first compound 0.1265 µM)?
Answer: The relative viability was 0.645.

Question: And the relative viability (LK-2; first compound 0.4 µM)?
Answer: The relative viability was 0.718.

Question: And the relative viability (LK-2; first compound 4 µM)?
Answer: The relative viability was 0.501.

Question: And the relative viability (SW 900; first compound 0.04 µM)?
Answer: The relative viability was 0.954.

Question: What about the relative viability (SW 900; first compound 0.1265 µM) of the same compound?
Answer: Its relative viability is 1.06.

Question: And the relative viability (SW 900; first compound 0.4 µM)?
Answer: Its relative viability is 0.867.

Question: And the relative viability (SW 900; first compound 1.265 µM)?
Answer: Its relative viability is 0.848.

Question: What about the relative viability (SW 900; first compound 4 µM) of the same compound?
Answer: The relative viability was 0.631.

Question: What about the relative viability (NCI-H520; first compound 0.04 µM) of the same compound?
Answer: Its relative viability is 0.289.

Question: And the relative viability (NCI-H520; first compound 0.1265 µM)?
Answer: The relative viability was 0.33.

Question: What about the relative viability (NCI-H520; first compound 0.4 µM) of the same compound?
Answer: Its relative viability is 0.389.

Question: And the relative viability (NCI-H520; first compound 1.265 µM)?
Answer: The relative viability was 0.327.

Question: And the relative viability (NCI-H520; first compound 4 µM)?
Answer: Its relative viability is 0.363.

Question: What about the relative viability (HCC-44; first compound 0.04 µM) of the same compound?
Answer: The relative viability was 0.912.

Question: And the relative viability (HCC-44; first compound 0.1265 µM)?
Answer: The relative viability was 0.957.

Question: And the relative viability (HCC-44; first compound 0.4 µM)?
Answer: Its relative viability is 0.934.

Question: What about the relative viability (HCC-44; first compound 1.265 µM) of the same compound?
Answer: The relative viability was 0.921.

Question: And the relative viability (HCC-44; first compound 4 µM)?
Answer: The relative viability was 0.919.

Question: What about the relative viability (NCI-H522; first compound 0.04 µM) of the same compound?
Answer: The relative viability was 0.724.

Question: And the relative viability (NCI-H522; first compound 0.1265 µM)?
Answer: The relative viability was 0.665.

Question: What about the relative viability (NCI-H522; first compound 0.4 µM) of the same compound?
Answer: Its relative viability is 0.761.

Question: What about the relative viability (NCI-H522; first compound 1.265 µM) of the same compound?
Answer: Its relative viability is 0.574.

Question: And the relative viability (NCI-H522; first compound 4 µM)?
Answer: Its relative viability is 0.594.

Question: What about the relative viability (NCI-H23; first compound 0.04 µM) of the same compound?
Answer: Its relative viability is 0.321.

Question: What about the relative viability (NCI-H23; first compound 0.1265 µM) of the same compound?
Answer: Its relative viability is 0.279.

Question: What about the relative viability (NCI-H23; first compound 0.4 µM) of the same compound?
Answer: Its relative viability is 0.303.

Question: And the relative viability (NCI-H23; first compound 1.265 µM)?
Answer: The relative viability was 0.334.

Question: What about the relative viability (NCI-H23; first compound 4 µM) of the same compound?
Answer: The relative viability was 0.194.

Question: What about the relative viability (SK-MES-1; first compound 0.04 µM) of the same compound?
Answer: The relative viability was 0.657.

Question: What about the relative viability (SK-MES-1; first compound 0.1265 µM) of the same compound?
Answer: Its relative viability is 0.658.

Question: And the relative viability (SK-MES-1; first compound 0.4 µM)?
Answer: Its relative viability is 0.689.

Question: What about the relative viability (SK-MES-1; first compound 1.265 µM) of the same compound?
Answer: The relative viability was 0.508.

Question: What about the relative viability (SK-MES-1; first compound 4 µM) of the same compound?
Answer: Its relative viability is 0.564.

Question: What about the relative viability (LCLC-103H; first compound 0.04 µM) of the same compound?
Answer: The relative viability was 0.714.

Question: And the relative viability (LCLC-103H; first compound 0.1265 µM)?
Answer: The relative viability was 0.748.

Question: What about the relative viability (LCLC-103H; first compound 0.4 µM) of the same compound?
Answer: The relative viability was 0.697.

Question: What about the relative viability (LCLC-103H; first compound 1.265 µM) of the same compound?
Answer: Its relative viability is 0.654.

Question: And the relative viability (LCLC-103H; first compound 4 µM)?
Answer: The relative viability was 0.719.

Question: And the relative viability (COR-L 105; first compound 0.04 µM)?
Answer: The relative viability was 0.752.

Question: And the relative viability (COR-L 105; first compound 0.1265 µM)?
Answer: Its relative viability is 0.765.

Question: And the relative viability (COR-L 105; first compound 0.4 µM)?
Answer: The relative viability was 0.708.

Question: What about the relative viability (COR-L 105; first compound 1.265 µM) of the same compound?
Answer: The relative viability was 0.692.

Question: And the relative viability (COR-L 105; first compound 4 µM)?
Answer: The relative viability was 0.683.

Question: What about the relative viability (HARA; first compound 0.04 µM) of the same compound?
Answer: The relative viability was 1.07.

Question: What about the relative viability (HARA; first compound 0.1265 µM) of the same compound?
Answer: Its relative viability is 1.02.

Question: What about the relative viability (HARA; first compound 0.4 µM) of the same compound?
Answer: Its relative viability is 0.456.

Question: What about the relative viability (HARA; first compound 1.265 µM) of the same compound?
Answer: The relative viability was 0.526.

Question: What about the relative viability (HARA; first compound 4 µM) of the same compound?
Answer: The relative viability was 0.862.

Question: What about the relative viability (NCI-H1666; first compound 0.04 µM) of the same compound?
Answer: The relative viability was 0.759.

Question: What about the relative viability (NCI-H1666; first compound 0.1265 µM) of the same compound?
Answer: Its relative viability is 0.737.

Question: And the relative viability (NCI-H1666; first compound 0.4 µM)?
Answer: Its relative viability is 0.816.

Question: And the relative viability (NCI-H1666; first compound 1.265 µM)?
Answer: The relative viability was 0.771.

Question: What about the relative viability (NCI-H1666; first compound 4 µM) of the same compound?
Answer: Its relative viability is 0.684.
